Results on 27 molecules are retold here after patent US20080161366A1, “AMINOALKYL SUBSTITUTED ARYL SULFAMIDE DERIVATIVES AND METHODS OF THEIR USE” (Wyeth, priority 2006, published 2008).

The structures appear in SMILES notation. Where a name gives a salt, the structure may show the parent alone.

Sequence of human norepinephrine transporter (hNET) (P23975 whole entry): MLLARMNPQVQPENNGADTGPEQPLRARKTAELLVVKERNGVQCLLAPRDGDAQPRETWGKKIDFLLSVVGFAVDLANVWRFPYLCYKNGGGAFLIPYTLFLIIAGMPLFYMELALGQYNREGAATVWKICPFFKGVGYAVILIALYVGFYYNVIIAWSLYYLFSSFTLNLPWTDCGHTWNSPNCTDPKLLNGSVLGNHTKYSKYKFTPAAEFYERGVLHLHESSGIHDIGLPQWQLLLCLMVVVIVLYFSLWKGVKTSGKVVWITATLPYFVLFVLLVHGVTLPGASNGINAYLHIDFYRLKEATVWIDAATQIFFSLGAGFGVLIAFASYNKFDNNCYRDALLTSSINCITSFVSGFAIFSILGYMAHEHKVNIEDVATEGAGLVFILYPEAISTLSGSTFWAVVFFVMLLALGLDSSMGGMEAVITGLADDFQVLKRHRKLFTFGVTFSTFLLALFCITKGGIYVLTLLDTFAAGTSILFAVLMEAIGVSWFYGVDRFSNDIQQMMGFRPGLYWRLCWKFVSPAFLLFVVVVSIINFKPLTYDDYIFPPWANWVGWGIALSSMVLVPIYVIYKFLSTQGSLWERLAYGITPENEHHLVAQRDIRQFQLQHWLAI

The first assay addresses human norepinephrine transporter (hNET) (Homo sapiens, UniProt P23975). The experiment in a line: hNET uptake, Protocol B: cell based norepinephrine reuptake assay using recombinant hNET (MDCK-Net6 cells). As to conditions: MDCK-Net6, read-out: NE uptake (Protocol B) % inhibition @ 6 uM.
In general, inhibition refers to the relative decrease from the control value, in per cent. In the case of `CN(C)CCCCCN1c2ccccc2N(c2ccc(F)cc2Cl)S1(=O)=O` [Example 90, 5-[3-(2-chloro-4-fluorophenyl)-2,2-dioxido-2,1,3-benzothiadiazol-1(3H)-yl]-N,N-dimethylpentan-1-amine hydrochloride], the inhibition at 6 µM was found to be 49%.
The same measure, in the same setting: to `O=S1(=O)N(CCCNCC(F)(F)F)c2ccccc2N1c1ccc(F)c(F)c1` [Example 111, 3-[3-(3,4-difluorophenyl)-2,2-dioxido-2,1,3-benzothiadiazol-1(3H)-yl]-N-(2,2,2-trifluoroethyl)propan-1-amine] belongs 0%.

Staying with this assay, now noted: NE uptake (Protocol B) IC50 (nM), MDCK-Net6 cells, 3H-NE 16 nM.
In general, IC50 refers to the concentration that inhibits the measured activity by half. On to `CNCCCN1c2ccccc2N(c2ccc(OC)cc2F)S1(=O)=O` [Example 91, 3-[3-(2-fluoro-4-methoxyphenyl)-2,2-dioxido-2,1,3-benzothiadiazol-1(3H)-yl]-N-methylpropan-1-amine hydrochloride], for which the IC50 came to 325 nM.
In the case of `CNCCCN1c2ccccc2N(c2ccc(O)cc2F)S1(=O)=O` [Example 92, 3-fluoro-4-{3-[3-(methylamino)propyl]-2,2-dioxido-2,1,3-benzothiadiazol-1(3H)-yl}phenol hydrochloride], the IC50 amounted to 3 nM.
Still for that read-out and setting: to `CNCCCCN1c2ccccc2N(c2ccc(O)cc2F)S1(=O)=O` [Example 93, 3-fluoro-4-{3-[4-(methylamino)butyl]-2,2-dioxido-2,1,3-benzothiadiazol-1(3H)-yl}phenol hydrochloride] belongs 3 nM; to `CNCCCN1c2ccccc2N(c2ccc(Cl)cc2F)S1(=O)=O` [Example 95, 3-[3-(4-chloro-2-fluorophenyl)-2,2-dioxido-2,1,3-benzothiadiazol-1(3H)-yl]-N-methylpropan-1-amine], 30 nM; to `O=S1(=O)N(CCCNC2CC2)c2ccccc2N1c1ccccc1` [Example 96, N-[3-(2,2-dioxido-3-phenyl-2,1,3-benzothiadiazol-1(3H)-yl)propyl]cyclopropanamine], 113 nM.
On the same count and under the same terms, then `O=S1(=O)N(CCCNC2CC2)c2ccccc2N1c1ccccc1F` [Example 97, N-{3-[3-(2-fluorophenyl)-2,2-dioxido-2,1,3-benzothiadiazol-1(3H)-yl]propyl}cyclopropanamine], with 21 nM; and `CNCCCN1c2ccccc2N(c2ccc(Cl)cc2C)S1(=O)=O` [Example 100, 3-[3-(4-chloro-2-methylphenyl)-2,2-dioxido-2,1,3-benzothiadiazol-1(3H)-yl]-N-methylpropan-1-amine], with 370 nM; and `CNCCCCCCN1c2ccccc2N(c2ccccc2F)S1(=O)=O` [Example 101, 6-[3-(2-fluorophenyl)-2,2-dioxido-2,1,3-benzothiadiazol-1(3H)-yl]-N-methylhexan-1-amine], with 1160 nM.
Consider `NCCCCCCN1c2ccccc2N(c2ccccc2F)S1(=O)=O` [Example 102, 6-[3-(2-fluorophenyl)-2,2-dioxido-2,1,3-benzothiadiazol-1(3H)-yl]hexan-1-amine], for which the IC50 is 26 nM.
Same read-out and setting: to `CN(C)CCCCCCN1c2ccccc2N(c2ccccc2F)S1(=O)=O` [Example 103, 6-[3-(2-fluorophenyl)-2,2-dioxido-2,1,3-benzothiadiazol-1(3H)-yl]-N,N-dimethylhexan-1-amine] belongs 1200 nM; to `CNCCCCN1c2ccccc2N(c2ccc(C)cc2F)S1(=O)=O` [Example 104, 4-[3-(2-fluoro-4-methylphenyl)-2,2-dioxido-2,1,3-benzothiadiazol-1(3H)-yl]-N-methylbutan-1-amine], 26 nM.
For `Cc1ccc(N2c3ccccc3N(CCCCN)S2(=O)=O)c(F)c1` [Example 105, 4-[3-(2-fluoro-4-methylphenyl)-2,2-dioxido-2,1,3-benzothiadiazol-1(3H)-yl]butan-1-amine], the IC50 was 125 nM.
Take `Cc1ccc(N2c3ccccc3N(CCCCN(C)C)S2(=O)=O)c(F)c1` [Example 106, 4-[3-(2-fluoro-4-methylphenyl)-2,2-dioxido-2,1,3-benzothiadiazol-1(3H)-yl]-N,N-dimethylbutan-1-amine]: the IC50 is 591 nM.
As for `CCNCCCCN1c2ccccc2N(c2ccc(C)cc2F)S1(=O)=O` [Example 107, N-ethyl-4-[3-(2-fluoro-4-methylphenyl)-2,2-dioxido-2,1,3-benzothiadiazol-1(3H)-yl]butan-1-amine], the IC50 is 582 nM.
On the same count and under the same terms, then `CNCCCN1c2ccccc2N(c2ccc(C)cc2F)S1(=O)=O` [Example 108, 3-[3-(2-fluoro-4-methylphenyl)-2,2-dioxido-2,1,3-benzothiadiazol-1(3H)-yl]-N-methylpropan-1-amine], with 4 nM; and `CNCCCN1c2ccccc2N(c2ccc(F)c(F)c2)S1(=O)=O` [Example 109, 3-[3-(3,4-difluorophenyl)-2,2-dioxido-2,1,3-benzothiadiazol-1(3H)-yl]-N-methylpropan-1-amine], with 20 nM; and `CNCCCCN1c2ccccc2N(c2ccc(F)c(F)c2)S1(=O)=O` [Example 110, 4-[3-(3,4-difluorophenyl)-2,2-dioxido-2,1,3-benzothiadiazol-1(3H)-yl]-N-methylbutan-1-amine], with 39 nM.
Regarding `CCNCCCN1c2ccccc2N(c2ccc(F)c(F)c2F)S1(=O)=O` [Example 112, 3-[2,2-dioxido-3-(2,3,4-trifluorophenyl)-2,1,3-benzothiadiazol-1(3H)-yl]-N-ethylpropan-1-amine], the IC50 is 2770 nM.
For `CNCCCN1c2ccccc2N(c2ccc(F)c(F)c2F)S1(=O)=O` [Example 113, 3-[2,2-dioxido-3-(2,3,4-trifluorophenyl)-2,1,3-benzothiadiazol-1(3H)-yl]-N-methylpropan-1-amine], the IC50 is 109 nM.
Same read-out and setting: to `CNCCCN1c2ccccc2N(c2ccc(F)cc2F)S1(=O)=O` [Example 114, 3-[3-(2,4-difluorophenyl)-2,2-dioxido-2,1,3-benzothiadiazol-1(3H)-yl]-N-methylpropan-1-amine hydrochloride] belongs 11 nM; to `CNCCCCCN1c2ccccc2N(c2ccc(F)cc2F)S1(=O)=O` [Example 115, 5-[3-(2,4-difluorophenyl)-2,2-dioxido-2,1,3-benzothiadiazol-1(3H)-yl]-N-methylpentan-1-amine hydrochloride], 61 nM.
Still for that read-out and setting: to `CN(C)CCCCCN1c2ccccc2N(c2ccc(F)cc2F)S1(=O)=O` [Example 117, 5-[3-(2,4-difluorophenyl)-2,2-dioxido-2,1,3-benzothiadiazol-1(3H)-yl]-N,N-dimethylpentan-1-amine hydrochloride] belongs 7190 nM; to `CN(C)CCCN1c2ccccc2N(c2ccc(F)cc2F)S1(=O)=O` [Example 118, 3-[3-(2,4-difluorophenyl)-2,2-dioxido-2,1,3-benzothiadiazol-1(3H)-yl]-N,N-dimethylpropan-1-amine hydrochloride], 153 nM.
Still for that read-out and setting: to `CCNCCCN1c2ccccc2N(c2ccc(F)cc2F)S1(=O)=O` [Example 119, 3-[3-(2,4-difluorophenyl)-2,2-dioxido-2,1,3-benzothiadiazol-1(3H)-yl]-N-ethylpropan-1-amine hydrochloride] belongs 77 nM; to `CN(C)CCCCN1c2ccccc2N(c2ccc(F)cc2F)S1(=O)=O` [Example 120, 4-[3-(2,4-difluorophenyl)-2,2-dioxido-2,1,3-benzothiadiazol-1(3H)-yl]-N,N-dimethylbutan-1-amine hydrochloride], 411 nM.
